Paper PMC11649115, “In vitro safety evaluation of dopamine D3R antagonist, R-VK4-116, as a potential medication for the treatment of opioid use disorder” (PLOS ONE, 2024)
Like-named read-outs stand apart in the source and are kept apart here.

Assays:
[1] = test system: CYP2B6; assay: CYP induction, in situ catalytic activity, human hepatocytes
Source text: Rifampicin as a positive control and solvent (0.1% DMSO) vehicle control were also included. The acceptance criteria for CYP induction was ≥ 2-fold induction for significant CYP activity, while the acceptance criteria for CYP mRNA was ≥ 4-fold for significant CYP induction.

[2] = test system: CYP3A4 mRNA; assay: CYP induction, mRNA, primary cultured human hepatocytes; format: in vitro ADME; conditions: for fold induction at 48 h, 0.01 µM / fold induction at 48 h, 0.1 µM / fold induction at 48 h, 1 µM / fold induction at 48 h, 3 µM / fold induction at 48 h, 5 µM / fold induction at 48 h, 10 µM: human, primary cultured human hepatocytes, read-out: CYP3A4 mRNA Fold Induction (fold of vehicle control)
[3] = target: T1, H1(h) (Homo sapiens, UniProt P35367); assay: Cellular and nuclear receptor functional assay, antagonist effect; format: cell-based
T1 construct: Eurofins Cerep (France) and Eurofins Discovery (St. Charles, MO)
T1 sequence (P35367 whole entry): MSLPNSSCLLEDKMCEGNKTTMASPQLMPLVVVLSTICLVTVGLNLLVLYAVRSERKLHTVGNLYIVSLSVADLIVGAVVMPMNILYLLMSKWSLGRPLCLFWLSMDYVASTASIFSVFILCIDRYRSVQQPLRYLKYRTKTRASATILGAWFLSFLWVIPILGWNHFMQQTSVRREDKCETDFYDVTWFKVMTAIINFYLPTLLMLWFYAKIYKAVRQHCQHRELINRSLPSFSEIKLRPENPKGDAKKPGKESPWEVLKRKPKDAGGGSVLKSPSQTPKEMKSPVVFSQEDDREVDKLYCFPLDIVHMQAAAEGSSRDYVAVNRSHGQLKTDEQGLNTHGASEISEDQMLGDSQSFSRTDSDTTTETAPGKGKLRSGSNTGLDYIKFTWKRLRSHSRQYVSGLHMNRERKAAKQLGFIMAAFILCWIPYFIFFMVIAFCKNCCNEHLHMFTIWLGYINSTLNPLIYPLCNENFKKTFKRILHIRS
Protocol: (§1) The purpose of this study was to provide a first step in preliminary safety assessments by providing early identification of potential off-target interactions for the optimization of safety margins. This study was conducted by Eurofins Cerep (France) and Eurofins Discovery (St. Charles, MO). R-VK4-116 was tested in enzyme and uptake assay with 10 enzyme targets (Figs 4 and 5 in S1 File), and cellular and nuclear receptor functional assays with 24 receptor targets (Figs 5 and 6 in S1 File). Compound enzyme inhibition effect was calculated as a % inhibition of control enzyme activity. The cellular agonist effect was calculated as a % of the control response to a known reference agonist for each target, and the cellular antagonist effect was calculated as a % inhibition of the control reference agonist response for each target.

[4] = target: T2, 5-HT2B(h) (Homo sapiens, UniProt P41595); assay: as above; format: cell-based; conditions: 10 μM
T2 construct: Eurofins Cerep (France) and Eurofins Discovery (St. Charles, MO)
T2 sequence (P41595 whole entry): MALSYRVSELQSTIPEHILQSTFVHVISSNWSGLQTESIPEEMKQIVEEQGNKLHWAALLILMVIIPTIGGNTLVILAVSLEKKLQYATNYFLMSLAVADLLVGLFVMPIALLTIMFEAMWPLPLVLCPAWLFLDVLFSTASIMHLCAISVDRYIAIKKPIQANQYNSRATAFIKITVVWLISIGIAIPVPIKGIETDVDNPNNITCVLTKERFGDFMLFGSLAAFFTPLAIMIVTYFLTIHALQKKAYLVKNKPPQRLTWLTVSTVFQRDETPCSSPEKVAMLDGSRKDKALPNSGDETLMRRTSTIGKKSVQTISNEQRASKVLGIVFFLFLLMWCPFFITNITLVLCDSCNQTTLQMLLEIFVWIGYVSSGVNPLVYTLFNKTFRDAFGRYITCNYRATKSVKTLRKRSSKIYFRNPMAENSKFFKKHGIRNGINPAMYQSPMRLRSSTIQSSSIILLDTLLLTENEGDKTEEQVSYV
Protocol: as §1

[5] = target: T3, α1A(h) (Homo sapiens, UniProt P35348); assay: as above; format: cell-based
T3 construct: Eurofins Cerep (France) and Eurofins Discovery (St. Charles, MO)
T3 sequence (P35348 whole entry): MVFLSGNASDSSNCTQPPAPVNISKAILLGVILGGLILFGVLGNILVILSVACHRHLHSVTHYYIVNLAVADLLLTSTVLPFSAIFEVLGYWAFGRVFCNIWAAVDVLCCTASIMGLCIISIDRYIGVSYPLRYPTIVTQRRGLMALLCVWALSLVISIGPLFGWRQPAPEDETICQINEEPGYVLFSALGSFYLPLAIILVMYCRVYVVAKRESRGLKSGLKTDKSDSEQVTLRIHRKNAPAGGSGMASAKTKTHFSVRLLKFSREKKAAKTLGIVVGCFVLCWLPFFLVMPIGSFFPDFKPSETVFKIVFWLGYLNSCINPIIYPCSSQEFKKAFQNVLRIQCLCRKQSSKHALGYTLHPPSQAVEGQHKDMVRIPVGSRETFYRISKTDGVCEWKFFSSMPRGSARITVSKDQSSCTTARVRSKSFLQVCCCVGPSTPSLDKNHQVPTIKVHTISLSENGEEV
Protocol: as §1

[6] = target: T4, V1a(h) (Homo sapiens, UniProt P37288); assay: as above; format: cell-based; conditions: 10 μM
T4 construct: Eurofins Cerep (France) and Eurofins Discovery (St. Charles, MO)
T4 sequence (P37288 whole entry): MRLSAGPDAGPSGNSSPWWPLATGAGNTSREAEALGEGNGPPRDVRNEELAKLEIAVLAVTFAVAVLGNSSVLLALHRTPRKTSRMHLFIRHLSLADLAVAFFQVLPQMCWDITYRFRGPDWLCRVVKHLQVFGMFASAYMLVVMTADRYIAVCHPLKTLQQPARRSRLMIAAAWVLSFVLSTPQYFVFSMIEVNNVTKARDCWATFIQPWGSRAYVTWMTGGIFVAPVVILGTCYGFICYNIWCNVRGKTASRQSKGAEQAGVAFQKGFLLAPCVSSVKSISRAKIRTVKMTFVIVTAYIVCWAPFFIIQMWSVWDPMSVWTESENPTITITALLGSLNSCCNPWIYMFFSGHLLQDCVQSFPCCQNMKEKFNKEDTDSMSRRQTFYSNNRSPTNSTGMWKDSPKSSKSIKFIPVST
Protocol: as §1

[7] = Metabolite identification in liver microsomes; format: in vitro ADME; conditions: 10 μM R-VK4-116, 120 min
Protocol: Reactions were stopped by removing 100 μl aliquots at 120 min and mixing with 200 μl of acetonitrile. Following brief vortexing and centrifugation, the supernatant was transferred to an HPLC vial fitted with a 300 μl glass insert for metabolite analysis using a Sciex 4000QTrap mass spectrometer.

[8] = target: T5, OCT2 (Homo sapiens, UniProt O15244); assay: Transporter mediated assay (substrate/inhibitor), MDCK-II cells; format: in vitro ADME
T5 construct: expressed in transfected cells; host or cells: MDCK-II cells
T5 sequence (O15244 1-555): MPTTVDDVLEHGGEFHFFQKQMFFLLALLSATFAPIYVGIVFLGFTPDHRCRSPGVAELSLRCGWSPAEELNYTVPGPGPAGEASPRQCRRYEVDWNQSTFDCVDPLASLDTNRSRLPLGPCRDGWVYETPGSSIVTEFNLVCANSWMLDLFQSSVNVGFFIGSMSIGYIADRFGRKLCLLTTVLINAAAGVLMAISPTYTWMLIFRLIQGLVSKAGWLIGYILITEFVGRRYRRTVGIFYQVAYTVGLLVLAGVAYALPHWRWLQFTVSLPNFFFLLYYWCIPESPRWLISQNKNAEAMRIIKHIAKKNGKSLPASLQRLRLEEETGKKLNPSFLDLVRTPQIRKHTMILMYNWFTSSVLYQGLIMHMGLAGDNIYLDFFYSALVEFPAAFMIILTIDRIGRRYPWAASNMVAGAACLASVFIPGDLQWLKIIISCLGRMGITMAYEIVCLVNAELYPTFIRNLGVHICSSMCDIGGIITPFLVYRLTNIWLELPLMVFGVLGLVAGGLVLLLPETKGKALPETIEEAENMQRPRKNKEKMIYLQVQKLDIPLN
Protocol: The MDCK-II cells were treated to express the transporter of interest. The transport of each probe substrate was determined by radiometric detection (Fig 1 in S1 File). […] For the uptake assay, the net transporter-mediated uptake-rate (V) of the substrate by each SLC transporter was calculated as follows: Transporter–mediatedupdaterate(pmol/min/cm^2)=(Cellularaccumulationincellsexpressingthetransporter)−(Meancellularaccumulationincontrolcells)/Surfacearea×incubationtime
Fold of activity and percent inhibition were determined as follows: Foldofactivity=(Meanuptakerate)transporterexpressingcells/(Meanuptakerate)controlcells Percentinhibition=100−100×(Transport‐mediatedupdaterate)withinhibitor/(Transport‐mediatedupdaterate)vehiclecontrol

[9] = target: T6, HPK1 (Homo sapiens, UniProt Q92918); assay: KINOMEscan binding (% Ctrl, Kd)
T6 construct: made in house; host or cells: E. coli BL21-derived host (T7 phage) or HEK-293
T6 sequence (Q92918 whole entry): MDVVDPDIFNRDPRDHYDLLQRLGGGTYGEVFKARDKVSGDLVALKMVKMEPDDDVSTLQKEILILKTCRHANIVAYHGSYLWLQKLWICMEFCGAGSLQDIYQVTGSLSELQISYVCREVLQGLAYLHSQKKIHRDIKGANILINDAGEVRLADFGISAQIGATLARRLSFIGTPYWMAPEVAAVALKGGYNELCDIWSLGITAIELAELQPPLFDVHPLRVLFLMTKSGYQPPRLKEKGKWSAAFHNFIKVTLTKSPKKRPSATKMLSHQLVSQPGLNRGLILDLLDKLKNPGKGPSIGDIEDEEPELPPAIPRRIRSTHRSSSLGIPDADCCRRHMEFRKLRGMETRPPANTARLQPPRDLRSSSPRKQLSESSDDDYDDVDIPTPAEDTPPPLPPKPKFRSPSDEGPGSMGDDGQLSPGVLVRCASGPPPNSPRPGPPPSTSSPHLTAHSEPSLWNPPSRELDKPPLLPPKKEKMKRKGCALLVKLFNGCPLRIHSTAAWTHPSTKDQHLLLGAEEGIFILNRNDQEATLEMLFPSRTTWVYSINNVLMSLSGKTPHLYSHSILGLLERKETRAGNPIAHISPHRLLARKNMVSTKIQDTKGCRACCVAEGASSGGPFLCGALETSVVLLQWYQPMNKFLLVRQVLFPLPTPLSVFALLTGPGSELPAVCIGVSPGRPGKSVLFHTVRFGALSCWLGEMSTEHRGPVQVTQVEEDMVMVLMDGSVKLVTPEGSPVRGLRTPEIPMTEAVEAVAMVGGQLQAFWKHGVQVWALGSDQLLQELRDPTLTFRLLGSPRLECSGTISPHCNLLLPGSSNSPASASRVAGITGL
Protocol: Briefly, E. coli host derived from the BL21 strain were grown to log-phase and infected with kinase-tagged T7 phage and incubated with shaking at 32°C until lysis. The lysates were centrifuged and filtered to remove cell debris. The remaining kinases were produced in HEK-293 cells and subsequently tagged with DNA for qPCR detection. Streptavidin-coated magnetic beads were treated with biotinylated small molecule ligands to generate affinity resins for kinase assays. The liganded beads were blocked with excess biotin and washed to remove unbound ligand and to reduce non-specific phage binding. […] Selectivity Score (S-score) was a quantitative measure of compound selectivity. […] The binding constants (Kds) were also determined with a standard dose-response curve using the Hill equation and Levenberg-Marquardt algorithm [24, 25].

## CCc1cc(Cl)c(OC)c(N2CCN(CC(O)CCNC(=O)c3cc4ccccc4[nH]3)CC2)c1 (stereo not drawn) [R-VK4-116, N-(4-(4-(3-chloro-5-ethyl-2-methoxyphenyl)piperazin-1-yl)-3-hydroxybutyl)-1H-indole-2-carboxamide]
[1]; hepatocyte Lot 336, 0.01 µM
  Fold of Vehicle Control (CYP2B6 activity, bupropion hydroxylation): 1.2 fold
[1]; hepatocyte Lot 336, 0.1 µM
  Fold of Vehicle Control (CYP2B6 activity, bupropion hydroxylation): 1.1 fold
[1]; hepatocyte Lot 336, 1 µM
  Fold of Vehicle Control (CYP2B6 activity, bupropion hydroxylation): 1.1 fold
[1]; hepatocyte Lot 336, 3 µM
  Fold of Vehicle Control (CYP2B6 activity, bupropion hydroxylation): 1.1 fold
[1]; hepatocyte Lot 336, 5 µM
  Fold of Vehicle Control (CYP2B6 activity, bupropion hydroxylation): 1.1 fold
[1]; hepatocyte Lot 336, 10 µM
  Bupropion Hydroxylation: 0.97 pmol/min/106 cells
  Fold of Vehicle Control (CYP2B6 activity, bupropion hydroxylation): 1.1 fold
[1]; hepatocyte Lot 348B, 0.01 µM
  Bupropion Hydroxylation: 5.0 pmol/min/106 cells
  Fold of Vehicle Control (CYP2B6 activity, bupropion hydroxylation): 1.1 fold
[1]; hepatocyte Lot 348B, 0.1 µM
  Bupropion Hydroxylation: 4.5 pmol/min/106 cells
  Fold of Vehicle Control (CYP2B6 activity, bupropion hydroxylation): 1.0 fold
[1]; hepatocyte Lot 348B, 1 µM
  Bupropion Hydroxylation: 4.5 pmol/min/106 cells
  Fold of Vehicle Control (CYP2B6 activity, bupropion hydroxylation): 1.0 fold
[1]; hepatocyte Lot 348B, 3 µM
  Bupropion Hydroxylation: 4.1 pmol/min/106 cells
  Fold of Vehicle Control (CYP2B6 activity, bupropion hydroxylation): 0.94 fold
[1]; hepatocyte Lot 348B, 5 µM
  Bupropion Hydroxylation: 3.8 pmol/min/106 cells
  Fold of Vehicle Control (CYP2B6 activity, bupropion hydroxylation): 0.85 fold
[1]; hepatocyte Lot 348B, 10 µM
  Bupropion Hydroxylation: 3.9 pmol/min/106 cells
  Fold of Vehicle Control (CYP2B6 activity, bupropion hydroxylation): 0.89 fold
[1]; hepatocyte Lot 399, 0.01 µM
  Fold of Vehicle Control (CYP2B6 activity, bupropion hydroxylation): 1.0 fold
[1]; hepatocyte Lot 399, 0.1 µM
  Fold of Vehicle Control (CYP2B6 activity, bupropion hydroxylation): 1.0 fold
[1]; hepatocyte Lot 399, 1 µM
  Fold of Vehicle Control (CYP2B6 activity, bupropion hydroxylation): 1.1 fold
[1]; hepatocyte Lot 399, 3 µM
  Fold of Vehicle Control (CYP2B6 activity, bupropion hydroxylation): 1.2 fold
[1]; hepatocyte Lot 399, 5 µM
  Fold of Vehicle Control (CYP2B6 activity, bupropion hydroxylation): 1.1 fold
[1]; hepatocyte Lot 399, 10 µM
  Fold of Vehicle Control (CYP2B6 activity, bupropion hydroxylation): 1.1 fold
[2]; 5 μM, two days, average of hepatocyte lots
  induction in CYP3A4 mRNA, average: 2.9 fold
[2]; Lot 336, 0.01 μM
  fold induction at 48 h, 0.01 µM: 1.1 ± 0.079
[2]; Lot 336, 0.1 μM
  fold induction at 48 h, 0.1 µM: 1.1 ± 0.18
[2]; Lot 336, 1 μM
  fold induction at 48 h, 1 µM: 2.3 ± 0.15
[2]; Lot 336, 3 μM
  fold induction at 48 h, 3 µM: 3.7 ± 0.56
[2]; Lot 336, 5 μM
  fold induction at 48 h, 5 µM: 4 ± 0.78
[2]; Lot 336, 10 μM
  fold induction at 48 h, 10 µM: 3.7 ± 0.2
[2]; Lot 348B, 0.01 μM
  fold induction at 48 h, 0.01 µM: 1.1 ± 0.05
[2]; Lot 348B, 0.1 μM
  fold induction at 48 h, 0.1 µM: 1.2 ± 0.081
[2]; Lot 348B, 1 μM
  fold induction at 48 h, 1 µM: 1.3 ± 0.12
[2]; Lot 348B, 3 μM
  fold induction at 48 h, 3 µM: 1.8 ± 0.17
[2]; Lot 348B, 5 μM
  fold induction at 48 h, 5 µM: 2 ± 0.27
[2]; Lot 348B, 10 μM
  fold induction at 48 h, 10 µM: 1.9 ± 0.13
[2]; Lot 399, 0.01 μM
  fold induction at 48 h, 0.01 µM: 1.2 ± 0.2
[2]; Lot 399, 0.1 μM
  fold induction at 48 h, 0.1 µM: 1.2 ± 0.11
[2]; Lot 399, 1 μM
  fold induction at 48 h, 1 µM: 1.8 ± 0.12
[2]; Lot 399, 3 μM
  fold induction at 48 h, 3 µM: 2.6 ± 0.14
[2]; Lot 399, 5 μM
  fold induction at 48 h, 5 µM: 2.7 ± 0.4
[2]; Lot 399, 10 μM
  fold induction at 48 h, 10 µM: 2.3 ± 0.39
[3]
  inhibition at 10 µM: 86.1%
[4]
  antagonist effect: 44.6%
[5]
  inhibition at 10 µM: 82.9%
[6]
  antagonist effect: 27.8%
[7]; dog liver microsomes, MRM product ion 116.1
  % Area: 10.4%
[7]; dog liver microsomes, MRM product ion 144.1
  % Area: 28.6%
[7]; human liver microsomes, MRM product ion 116.1
  % Area: 62.4%
[7]; human liver microsomes, MRM product ion 144.1
  % Area: 4.1%
[7]; rat liver microsomes, MRM product ion 116.1
  % Area: 8.2%
[7]; rat liver microsomes, MRM product ion 144.1
  % Area: 86.1%
[8]; OCT2, 1 μM, transporter cells vs control cells
  fold difference in mean uptake rate (substrate test): < 2 fold
[8]; OCT2, 0.1% BSA, 10 μM
  Inhibition (%): no statistically significant inhibition
[8]; human, polarized monolayer of MDCK-II cells expressing OCT2, OCT2, 0.1% BSA, 10 μM
  inhibition at 10 µM: -17.4 ± 1.88%
[9]; 11-point curve 0.001 to 10 μM, read-out: binding constant (Kd)
  Kd: > 10 µM
[9]; read-out: %Control
  remaining binding at 1 µM: < 35%
[9]; read-out: Gene (S-score with % control): HPK1
  remaining binding at 1 µM: 29%
